Experimental data published in patent US12037344B2, “NLRP3 modulators” (INNATE TUMOR IMMUNITY, INC., priority 2018, dated 2024).
pEC50: −log10 of the molar value. Where a name gives a salt, the structure may show the parent alone. Read-outs that look alike come from different tables or passages of the source.

Key:
THP-1 cells = assay: Measurement of IL-1β production, hTRF protocol (second alternative procedure), THP-1 cells; type: cell-based, human; conditions: read-out: NLRP3 hILIB EC50
Procedure, shortened: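 Compounds, dilution series starting at a final 10 μM, were incubated 2 hours at 37° C with PMA-differentiated THP-1 cells (50 ng/ml overnight; 50,000 cells/well, 2% FBS RPMI). Released IL-1β quantified in supernatant by hTRF kit with 1:40 antibody dilution, 4° C overnight, 665/615 nm ratio.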

TLR8 = target: T1, TLR8 (Homo sapiens, UniProt Q9NR97); assay: In vitro human TLR8 binding reporter assay (HEK-Blue, NF-kB/AP1-inducible SEAP); type: cell-based; conditions: read-out: TLR8 Agonist EC50
T1 construct: human HEK-Blue cells co-expressing a TLR7 or TLR8 gene
T1 sequence (Q9NR97 27-1041): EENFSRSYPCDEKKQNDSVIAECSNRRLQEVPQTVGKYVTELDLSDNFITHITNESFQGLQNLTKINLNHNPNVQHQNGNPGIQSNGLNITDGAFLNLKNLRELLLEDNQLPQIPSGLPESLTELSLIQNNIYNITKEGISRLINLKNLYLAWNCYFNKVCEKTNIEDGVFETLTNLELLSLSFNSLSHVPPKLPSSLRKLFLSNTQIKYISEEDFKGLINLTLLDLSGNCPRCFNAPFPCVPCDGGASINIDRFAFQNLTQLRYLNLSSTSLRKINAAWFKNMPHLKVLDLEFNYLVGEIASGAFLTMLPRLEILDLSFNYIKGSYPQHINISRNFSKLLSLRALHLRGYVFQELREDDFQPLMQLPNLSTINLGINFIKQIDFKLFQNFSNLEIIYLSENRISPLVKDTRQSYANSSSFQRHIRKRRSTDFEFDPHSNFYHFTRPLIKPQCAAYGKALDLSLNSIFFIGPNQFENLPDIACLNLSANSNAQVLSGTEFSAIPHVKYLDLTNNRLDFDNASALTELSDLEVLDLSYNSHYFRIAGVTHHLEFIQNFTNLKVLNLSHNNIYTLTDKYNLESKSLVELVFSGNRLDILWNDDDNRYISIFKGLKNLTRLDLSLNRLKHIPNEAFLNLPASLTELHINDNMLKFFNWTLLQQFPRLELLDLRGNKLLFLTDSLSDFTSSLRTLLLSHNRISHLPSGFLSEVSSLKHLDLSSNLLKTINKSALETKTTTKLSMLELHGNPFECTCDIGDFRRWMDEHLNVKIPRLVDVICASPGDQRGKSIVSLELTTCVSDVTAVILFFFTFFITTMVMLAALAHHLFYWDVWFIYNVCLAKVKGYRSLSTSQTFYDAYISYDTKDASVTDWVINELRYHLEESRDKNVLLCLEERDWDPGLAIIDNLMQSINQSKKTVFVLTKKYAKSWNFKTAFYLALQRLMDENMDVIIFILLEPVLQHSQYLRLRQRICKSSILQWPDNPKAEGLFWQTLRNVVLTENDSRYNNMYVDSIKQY
Procedure, shortened: (§1)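 HEK-Blue cells expressing human TLR7 or TLR8 with NF-kB/AP1-inducible SEAP reporter, plated 24 h, then compound-treated 18 h at 37° C, 5% CO2. EC50 normalized to 100% Ymax set by 50 μM reference standard.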

TLR7 = target: T2, TLR7 (Homo sapiens, UniProt Q9NYK1); assay: In vitro human TLR7 binding reporter assay (HEK-Blue, NF-kB/AP1-inducible SEAP); type: cell-based; conditions: read-out: TLR7 Agonist EC50
T2 construct: human HEK-Blue cells co-expressing a TLR7 or TLR8 gene
T2 sequence (Q9NYK1 27-1049): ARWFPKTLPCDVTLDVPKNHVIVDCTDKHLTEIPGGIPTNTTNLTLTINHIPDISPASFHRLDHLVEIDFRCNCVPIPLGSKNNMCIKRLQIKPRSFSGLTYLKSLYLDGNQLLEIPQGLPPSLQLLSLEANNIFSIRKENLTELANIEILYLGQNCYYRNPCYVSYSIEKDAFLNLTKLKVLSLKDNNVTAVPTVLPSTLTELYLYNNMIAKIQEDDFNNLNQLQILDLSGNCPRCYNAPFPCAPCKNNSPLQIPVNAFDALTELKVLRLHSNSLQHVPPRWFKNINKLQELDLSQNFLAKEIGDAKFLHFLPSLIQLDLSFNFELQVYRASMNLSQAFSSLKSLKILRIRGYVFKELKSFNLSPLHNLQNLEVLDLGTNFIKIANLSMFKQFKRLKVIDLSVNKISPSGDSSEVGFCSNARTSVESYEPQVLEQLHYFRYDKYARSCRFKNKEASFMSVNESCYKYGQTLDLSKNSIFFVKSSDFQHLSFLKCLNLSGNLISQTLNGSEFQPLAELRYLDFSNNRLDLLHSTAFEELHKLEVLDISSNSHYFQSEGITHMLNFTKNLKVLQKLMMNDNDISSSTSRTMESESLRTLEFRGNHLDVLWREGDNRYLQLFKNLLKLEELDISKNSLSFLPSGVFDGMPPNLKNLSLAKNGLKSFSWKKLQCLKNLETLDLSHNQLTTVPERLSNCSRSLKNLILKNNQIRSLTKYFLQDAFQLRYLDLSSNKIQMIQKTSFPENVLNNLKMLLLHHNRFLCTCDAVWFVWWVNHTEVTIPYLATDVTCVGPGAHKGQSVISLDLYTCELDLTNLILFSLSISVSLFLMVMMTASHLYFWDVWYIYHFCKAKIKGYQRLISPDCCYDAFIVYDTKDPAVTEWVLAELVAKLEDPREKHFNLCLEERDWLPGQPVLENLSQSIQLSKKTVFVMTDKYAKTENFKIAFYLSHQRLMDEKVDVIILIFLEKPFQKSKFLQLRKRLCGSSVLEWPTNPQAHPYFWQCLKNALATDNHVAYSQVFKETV
Procedure, shortened: as §1

[1] = Homo sapiens, THP-1, IL-1β production, human
[2] = Homo sapiens, THP-1, IL-1β production, human cells

For `Nc1nc2cc(-c3cc[nH]n3)ccc2c2nn(C3CCCOC3)cc12` (stereo not drawn) [Example 312], the pEC50 (THP-1 cells; [1]) was 6.66, the pEC50 (TLR8; activity range class) was < 4.00 and the pEC50 (TLR7; activity range class) was < 4.00.
For `Nc1nc2cc(-c3cc[nH]n3)ccc2c2nn(CCC(=O)N3CC(O)C3)cc12` [Example 512], the pEC50 (THP-1 cells; [2]) was 5.24, the pEC50 (TLR8; activity range) was < 4.00 and the pEC50 (TLR7; activity range) was < 4.00.
`CC[C@@H](O)Cn1cc2c(N)nc3cc(-c4cc[nH]n4)ccc3c2n1` [Example 368] was tested, and the pEC50 (THP-1 cells; [1]) was 6.28, the pEC50 (TLR8; activity range class) was < 4.00 and the pEC50 (TLR7; activity range class) was < 4.00.
For `Nc1nc2cc(-c3cc[nH]n3)ccc2c2nn(CCNC(=O)c3ccccc3)cc12` [Example 200], the pEC50 (THP-1 cells; [1]) was 6.24, the pEC50 (TLR8; activity range class) was < 4.00 and the pEC50 (TLR7; activity range class) was < 4.00.
`Nc1nc2cc(-c3cc[nH]n3)ccc2c2nn(C[C@@H](O)CO)cc12` [Example 365] was tested, and the pEC50 (THP-1 cells; [1]) was 5.73, the pEC50 (TLR8; activity range class) was < 4.00 and the pEC50 (TLR7; activity range class) was < 4.00.
In the case of `CNC(=O)CCn1cc2c(N)nc3cc(-n4cccn4)ccc3c2n1` [Example 556], the pEC50 (THP-1 cells; [2]) was 5.74, the pEC50 (TLR8; activity range) was < 4.00 and the pEC50 (TLR7; activity range) was < 4.00.
`Nc1nc2cc(-c3cc[nH]n3)ccc2c2cn(CCNC(=O)c3csc(-c4ccncc4)n3)nc12` [Example 86] was tested, and the pEC50 (THP-1 cells; [1]) was 5.56, the pEC50 (TLR8; activity range class) was < 4.00 and the pEC50 (TLR7; activity range class) was < 4.00.
`Nc1nc2cc(-c3cc[nH]n3)ccc2c2[nH]c(CNC(=O)c3ccc(F)cn3)cc12` [Example 418] was tested, and the pEC50 (THP-1 cells; [2]) was 5.44, the pEC50 (TLR8; activity range) was < 4.00 and the pEC50 (TLR7; activity range) was < 4.00.
In the case of `CC(C)(CCO)n1cc2c(N)nc3cc(-c4cc[nH]n4)ccc3c2n1` [Example 410, 3-(4-amino-7-(1H-pyrazol-3-yl)-2H-pyrazolo[4,3-c]quinolin-2-yl)-3-methylbutan-1-ol, TFA], the pEC50 (THP-1 cells; [2]) was 6.48, the pEC50 (TLR8; activity range) was < 4.00 and the pEC50 (TLR7; activity range) was < 4.00.
`C[C@H](Cn1cc2c(n1)c(N)nc1cc(-c3cc[nH]n3)ccc12)NS(C)(=O)=O` [Example 530] was tested, and the pEC50 (THP-1 cells; [2]) was 6.17, the pEC50 (TLR8; activity range) was < 4.00 and the pEC50 (TLR7; activity range) was < 4.00.
A pEC50 (THP-1 cells; [1]) of 5.77, a pEC50 (TLR8; activity range class) of 4.00 to 4.70 and a pEC50 (TLR7; activity range class) of 4.00 to 4.70 were found for `Nc1nc2cc(-n3cccn3)ccc2c2cn(Cc3ccccn3)nc12` [Example 14] in this work.
With `Nc1nc2cc(-c3cc[nH]n3)ccc2c2nn(C3CCCCC3O)cc12` (single isomer, unassigned) [Example 319] the pEC50 (THP-1 cells; IL-1β production, human) was 5.95, the pEC50 (TLR8; activity range class) was < 4.00 and the pEC50 (TLR7; activity range class) was < 4.00.
In the case of `Nc1nc2cc(-c3ccn[nH]3)ccc2c2[nH]c(CC3CCCO3)cc12` (stereo not drawn) [Example 156, 2-[(oxolan-2-yl)methyl]-7-(1H-pyrazol-5-yl)-1H-pyrrolo[3,2-c]quinolin-4-amine], the pEC50 (THP-1 cells; [1]) was 6.51, the pEC50 (TLR8; activity range class) was < 4.00 and the pEC50 (TLR7; activity range class) was < 4.00.
`COCCn1ncc2c(N)nc3cc(-c4cc[nH]n4)ccc3c21` [Example 208, 1-(2-methoxyethyl)-7-(1H-pyrazol-3-yl)-1H-pyrazolo[4,3-c]quinolin-4-amine] was tested, and the pEC50 (THP-1 cells; [1]) was 6.31, the pEC50 (TLR8; activity range class) was < 4.00 and the pEC50 (TLR7; activity range class) was < 4.00.
For `COC(=O)c1cccc(C(=O)NCCn2cc3c(n2)c(N)nc2cc(-c4cc[nH]n4)ccc23)n1` [Example 63], the pEC50 (THP-1 cells; [1]) was 5.79, the pEC50 (TLR8; activity range class) was < 4.00 and the pEC50 (TLR7; activity range class) was < 4.00.
`Nc1nc2cc(-c3cc[nH]n3)c(F)cc2c2c1cnn2CCO` [Example 403] was tested, and the pEC50 (THP-1 cells; [2]) was 5.42, the pEC50 (TLR8; activity range) was < 4.00 and the pEC50 (TLR7; activity range) was < 4.00.
For `Nc1nc2cc(-c3ccn[nH]3)ccc2c2cn(CC(F)F)nc12` [Example 192], the pEC50 (THP-1 cells; [1]) was 7.05, the pEC50 (TLR8; activity range class) was < 4.00 and the pEC50 (TLR7; activity range class) was < 4.00.
With `Nc1nc2cc(-c3cc[nH]n3)ccc2c2nn(Cc3cc[nH]n3)cc12` [Example 357] the pEC50 (THP-1 cells; [1]) was 6.72, the pEC50 (TLR8; activity range class) was < 4.00 and the pEC50 (TLR7; activity range class) was < 4.00.
For `Nc1nc2cc(-c3cc[nH]n3)ccc2c2nn(CCNC(=O)c3cccnc3)cc12` [Example 204], the pEC50 (THP-1 cells; [1]) was 5.59, the pEC50 (TLR8; activity range class) was < 4.00 and the pEC50 (TLR7; activity range class) was < 4.00.
In the case of `Nc1nc2cc(-c3cc[nH]n3)ccc2c2cn(CCNC(=O)c3cnccn3)nc12` [Example 83], the pEC50 (THP-1 cells; [1]) was 6.44, the pEC50 (TLR8; activity range class) was < 4.00 and the pEC50 (TLR7; activity range class) was < 4.00.
For `Cc1nc(C(=O)NCCn2cc3c(n2)c(N)nc2cc(-c4cc[nH]n4)ccc23)co1` [Example 76], the pEC50 (THP-1 cells; [1]) was 6.48, the pEC50 (TLR8; activity range class) was < 4.00 and the pEC50 (TLR7; activity range class) was < 4.00.
With `Nc1nc2cc(-c3cccs3)ccc2c2cn(CCNC(=O)c3ccccn3)nc12` [Example 131] the pEC50 (THP-1 cells; [1]) was 6.21, the pEC50 (TLR8; activity range class) was < 4.00 and the pEC50 (TLR7; activity range class) was < 4.00.
